Earlier results, collected in patent US8569299B2, “Prolylcarboxypeptidase inhibitors” (Merck Sharp & Dohme Corp, priority 2010, dated 2013).
Like-named read-outs stand apart in the source and are kept apart here. Where no end group is shown, it is not given here.

Legend:
[1] = in vivo
[2] = overnight fasted animals, 2.5 ug
[3] = systemic administration, obese leptin deficient mice
[4] = intracerebroventricular, rats

In the case of `CCN[C@@H](C)Cc1cccc(C(F)(F)F)c1` [dexfenfluramine], the “weight loss of body weight for drug compared to placebo” value (from here on “weight loss … compared to placebo”) [1] is listed as 5%-10%.

In the case of `CC(C)(N)Cc1ccccc1` [phentermine], the “weight loss … compared to placebo” value [1] is listed as 5%-10%.

In the case of `CC(C)CC(N(C)C)C1(c2ccc(Cl)cc2)CCC1` (stereo not shown) [sibutramine], the “weight loss … compared to placebo” value [1] is given as 5%-10%.

For “alpha-melanocyte-stimulating hormone (SYSMEHFRWGKPV; ends and bridges not checked; UniProt P01189 138-150, looked up) [α-MSH1-13, peptide hormone derived from POMC, substrate of PRCP]”, the “reduction in food intake relative to control animals” value [2] is given as 40%.

In the case of t-butyl carbamate-prolyl prolinal [BPP], the overnight food intake [3] is listed as “suppression of overnight food intake” and the overnight food intake [4] is listed as “suppression of overnight food intake”.

For `CCCCCCCCCCC[C@@H](C[C@@H]1OC(=O)[C@H]1CCCCCC)OC(=O)[C@H](CC(C)C)NC=O` [orlistat], the “weight loss … compared to placebo” value [1] is listed as 5%-10%.
